Source: publication PMC9134086, “Inhibition of Dipeptidyl Peptidase-4 by Flavonoids: Structure–Activity Relationship, Kinetics and Interaction Mechanism” (Frontiers in Nutrition, 2022)
Where two headings read alike, the source gives them in different places.

Columns and labels:
[1] = target: T1, DPP-4 (human recombinant) (Homo sapiens, UniProt P27487); assay: In vitro assay for DPP-4 inhibitory activity (fluorescence, Gly-Pro-AMC); format: biochemical; details: for inhibition at 200 µM: read-out: % Inhibition at 200μM;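 as to all read-outs here: fluorescence of released AMC (excitation 360 nm, emission 460 nm) followed kinetically over 30 min at 37 °C in Tris-HCl pH 8.0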
T1 construct: purchased Sigma Aldrich D3446
T1 sequence (P27487 whole entry): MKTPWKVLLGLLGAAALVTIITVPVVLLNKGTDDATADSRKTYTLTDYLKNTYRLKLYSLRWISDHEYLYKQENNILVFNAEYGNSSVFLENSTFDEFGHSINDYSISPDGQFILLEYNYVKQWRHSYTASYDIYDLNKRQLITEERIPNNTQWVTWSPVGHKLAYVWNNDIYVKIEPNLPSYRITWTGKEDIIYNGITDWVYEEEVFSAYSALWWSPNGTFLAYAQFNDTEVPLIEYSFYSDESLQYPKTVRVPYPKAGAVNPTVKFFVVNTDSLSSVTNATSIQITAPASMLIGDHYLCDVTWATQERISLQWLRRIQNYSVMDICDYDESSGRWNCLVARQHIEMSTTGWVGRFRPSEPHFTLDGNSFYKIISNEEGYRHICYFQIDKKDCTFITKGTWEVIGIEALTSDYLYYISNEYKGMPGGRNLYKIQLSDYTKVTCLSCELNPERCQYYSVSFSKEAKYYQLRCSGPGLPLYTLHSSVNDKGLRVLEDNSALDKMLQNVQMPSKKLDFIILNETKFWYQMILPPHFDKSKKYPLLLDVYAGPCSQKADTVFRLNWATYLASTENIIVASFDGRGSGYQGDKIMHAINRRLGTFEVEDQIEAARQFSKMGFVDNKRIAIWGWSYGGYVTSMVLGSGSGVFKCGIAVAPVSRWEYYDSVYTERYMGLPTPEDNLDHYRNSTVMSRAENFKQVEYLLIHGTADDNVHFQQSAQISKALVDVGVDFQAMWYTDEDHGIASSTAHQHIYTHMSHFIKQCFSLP

[2] = target: T1, DPP-4 (human recombinant); assay: Fluorescence quenching experiments (Stern-Volmer, binding constant, thermodynamic parameters); details: 310 K;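 also: intrinsic DPP-4 fluorescence emission scanned 290–500 nm, corrected for flavonoid background and inner-filter absorbance, compared without versus with flavonoid quencher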
[3] = flavonoid 200 μM, mean ± SD, three independent experiments

Compound `O=c1cc(-c2ccccc2)oc2cc(O)cc(O)c12` [A3, Chrysin] has an inhibition at 200 µM [1, 3] of 26.1 ± 3.07%.
`COc1ccc(-c2cc(=O)c3c(O)cc(O)cc3o2)cc1O` [A4, Diosmetin] was tested, and the inhibition at 200 µM [1, 3] was 22.2 ± 1.22%.
`COc1ccc(-c2cc(=O)c3c(O)cc(O[C@@H]4O[C@H](CO[C@@H]5O[C@@H](C)[C@H](O)[C@@H](O)[C@H]5O)[C@@H](O)[C@H](O)[C@H]4O)cc3o2)cc1O` [A5, Diosmin] gave an inhibition at 200 µM [1, 3] of 16.4 ± 1.73%.
Compound `O=c1cc(-c2ccc(O)c(O)c2)oc2cc(O)c([C@@H]3O[C@H](CO)[C@@H](O)[C@H](O)[C@H]3O)c(O)c12` [A6, Isoorientin] has an inhibition at 200 µM [1, 3] of 42.63 ± 0.33%.
For `O=c1cc(-c2ccc(O)cc2)oc2cc(O)c([C@@H]3O[C@H](CO)[C@@H](O)[C@H](O)[C@H]3O)c(O)c12` [A7, Isovitexin], the inhibition at 200 µM [1, 3] was 42.4 ± 1.23%.
`O=c1cc(-c2ccc(O)c(O)c2)oc2cc(O)cc(O)c12` [A8, Luteolin] showed an inhibition at 200 µM [1, 3] of 47.5 ± 0.89%.
Work on `O=C(O)C1OC(Oc2cc(O)c3c(=O)cc(-c4ccc(O)c(O)c4)oc3c2)C(O)C(O)C1O` (centres unmarked) [A9, Luteolin 7-O-glucuronide] yielded an inhibition at 200 µM [1, 3] of 35.65 ± 0.11%.
`O=c1cc(-c2ccc(O)c(O)c2)oc2cc(O[C@@H]3O[C@H](CO)[C@@H](O)[C@H](O)[C@H]3O)cc(O)c12` [A10, Luteoloside] gave an inhibition at 200 µM [1, 3] of 45.6 ± 0.62%.
Compound `C[C@@H]1O[C@@H](OC[C@H]2O[C@@H](Oc3cc(O)c4c(c3)O[C@H](c3ccc(O)cc3)CC4=O)[C@H](O)[C@@H](O)[C@@H]2O)[C@H](O)[C@H](O)[C@H]1O` [A11, Narirutin] has an inhibition at 200 µM [1] of 13.97 ± 0.13%.
`O=c1cc(-c2ccc(O)c(O)c2)oc2c([C@@H]3O[C@H](CO)[C@@H](O)[C@H](O)[C@H]3O)c(O)cc(O)c12` [A12, Orientin] was tested, and the inhibition at 200 µM [1] was 38.6 ± 2.1%.
`COc1ccc(-c2cc(=O)c3c(OC)c(OC)c(OC)c(OC)c3o2)cc1` [A13, Tangeretin] showed an inhibition at 200 µM [1, 3] of 14.2 ± 1.06%.
Compound `O=c1cc(-c2ccc(O)cc2)oc2c([C@@H]3O[C@H](CO)[C@@H](O)[C@H](O)[C@H]3O)c(O)cc(O)c12` [A14, Vitexin] has an inhibition at 200 µM [1] of 27 ± 1.35%.
Work on `O=c1cc(-c2ccc(OC3OC(CO)C(O)C(O)C3O)cc2)oc2c(C3OC(CO)C(O)C(O)C3O)c(O)cc(O)c12` (centres unmarked) [A16, Vitexin 4'-O-glucoside] yielded an inhibition at 200 µM [1, 3] of 45.9 ± 1.48%.
Compound `COc1ccc(-c2coc3cc(O)cc(O)c3c2=O)cc1` [B1, Biochanin A] has an inhibition at 200 µM [1, 3] of 14.3 ± 1.48%.
`COc1ccc(-c2coc3cc(O)ccc3c2=O)cc1O` [B2, Calycosin] showed an inhibition at 200 µM [1, 3] of 43 ± 2.41%.
`O=c1c(-c2ccc(O)cc2)coc2cc(O)ccc12` [B3, Daidzein] was tested, and the inhibition at 200 µM [1, 3] was 19.2 ± 3.44%.
Compound `COc1ccc(-c2coc3cc(O)ccc3c2=O)cc1` [B4, Formononetin] has an inhibition at 200 µM [1, 3] of 17.6 ± 0.19%.
`O=c1c(-c2ccc(O)cc2)coc2cc(O)cc(O)c12` [B5, Genistein] gave an inhibition at 200 µM [1, 3] of 15.3 ± 0.21%.
Compound `COc1cc(O)c2c(=O)cc(-c3ccc(O)cc3)oc2c1` [B6, Genkwanin] has an inhibition at 200 µM [1, 3] of 20.8 ± 1.92%.
`O=C1c2c(O)cc(O)cc2O[C@H](c2ccc(O)cc2O)[C@H]1O` [C1, Dihydromorin] gave an inhibition at 200 µM [1, 3] of 30.9 ± 1.22%.
`O=C1c2c(O)cc(O)cc2O[C@H](c2cc(O)c(O)c(O)c2)[C@H]1O` [C2, Dihydromyricetin] showed an inhibition at 200 µM [1, 3] of 20.6 ± 0.36%.
`COc1ccc([C@@H]2CC(=O)c3c(O)cc(O)cc3O2)cc1O` [C3, Hesperetin] showed an inhibition at 200 µM [1, 3] of under 10%.
For `COc1ccc(C2CC(=O)c3c(O)cc(OC4OC(COC5OC(C)C(O)C(O)C5O)C(O)C(O)C4O)cc3O2)cc1O` (centres unmarked) [C4, Hesperidin], the inhibition at 200 µM [1] was under 10%.
With `O=C1C[C@@H](c2ccc(O)cc2)Oc2cc(O)ccc21` [C5, Liquiritigenin] the inhibition at 200 µM [1, 3] was 17.1 ± 0.94%.
`Oc1cc(O)c2c(c1)OC(c1ccc(O)c(O)c1)C(O)C2` (centres unmarked) [D1, Catechin] showed an inhibition at 200 µM [1, 3] of under 10%.
In the case of `Oc1cc(O)c2c(c1)O[C@H](c1ccc(O)c(O)c1)[C@H](O)C2` [D2, Epicatechin], the inhibition at 200 µM [1, 3] is reported as under 10%.
Work on `O=C(O[C@@H]1Cc2c(O)cc(O)cc2O[C@@H]1c1cc(O)c(O)c(O)c1)c1cc(O)c(O)c(O)c1` [D3, Epigallocatechin gallate] yielded an inhibition at 200 µM [1, 3] of under 10%.
`O=c1c(O[C@@H]2O[C@@H](CO)[C@H](O)[C@H]2O)c(-c2ccc(O)c(O)c2)oc2cc(O)cc(O)c12` [E1, Avicularin] gave an inhibition at 200 µM [1, 3] of 27.1 ± 0.42%.
`O=c1c(O)c(-c2ccccc2)oc2cc(O)cc(O)c12` [E2, Galangin] gave an inhibition at 200 µM [1, 3] of 38.26 ± 0.36%.
In the case of `O=c1c(O)c(-c2ccc(O)cc2)oc2c(O)c(O)cc(O)c12` [E3, Herbacetin], the inhibition at 200 µM [1] is reported as 25.7 ± 1.82%.
`O=c1c(O[C@@H]2O[C@H](CO)[C@@H](O)[C@H](O)[C@H]2O)c(-c2ccc(O)c(O)c2)oc2cc(O)cc(O)c12` [E5, Isoquercitrin] gave an inhibition at 200 µM [1, 3] of 36.9 ± 1.13%.
`COc1cc(-c2oc3cc(O)cc(O)c3c(=O)c2O)ccc1O` [E6, Isorhamnetin] gave an inhibition at 200 µM [1] of 29.4 ± 1.52%.
Work on `COc1cc(-c2oc3cc(O)cc(O)c3c(=O)c2OC2OC(CO)C(O)C(O)C2O)ccc1O` (centres unmarked) [E7, Isorhamnetin 3-O-glucoside] yielded an inhibition at 200 µM [1, 3] of 38.6 ± 1.41%.
Compound `COc1cc(-c2oc3cc(O)cc(O)c3c(=O)c2OC2OC(CO)C(O)C(O)C2OC2OC(C)C(O)C(O)C2O)ccc1O` (centres unmarked) [E8, Isorhamnetin 3-O-neohesperidin] has an inhibition at 200 µM [1, 3] of 40.6 ± 0.42%.
`COc1ccc(-c2oc3cc(O)cc(O)c3c(=O)c2O)cc1` [E9, Kaempferide] was tested, and the inhibition at 200 µM [1, 3] was 15.7 ± 0.58%.
Compound `C[C@@H]1O[C@@H](Oc2cc(O)c3c(=O)c(O[C@@H]4O[C@@H](C)[C@H](O)[C@@H](O)[C@H]4O)c(-c4ccc(O)cc4)oc3c2)[C@H](O)[C@H](O)[C@H]1O` [E10, Kaempferitrin] has an inhibition at 200 µM [1, 3] of 19.3 ± 0.47%.
`O=c1c(O)c(-c2ccc(O)cc2)oc2cc(O)cc(O)c12` [E11, Kaempferol] gave an inhibition at 200 µM [1, 3] of 32.23 ± 0.19%.
`O=c1c(OC2OC(CO)C(O)C(O)C2O)c(-c2ccc(O)cc2)oc2cc(O)cc(O)c12` (centres unmarked) [E13, Kaempferol 3-O-galactoside] gave an inhibition at 200 µM [1, 3] of 46.3 ± 1.57%.
Work on `CC1OC(OCC2OC(Oc3c(-c4ccc(O)cc4)oc4cc(O)cc(O)c4c3=O)C(O)C(O)C2O)C(O)C(O)C1O` (centres unmarked) [E14, Kaempferol 3-O-rutinoside] yielded an inhibition at 200 µM [1, 3] of 36.83 ± 0.01%.
For `O=c1c(OC2OC(CO)C(O)C(O)C2OC2OC(CO)C(O)C(O)C2O)c(-c2ccc(O)cc2)oc2cc(O)cc(O)c12` (centres unmarked) [E15, Kaempferol 3-O-sophoroside], the inhibition at 200 µM [1, 3] was 43.2 ± 1.48%.
`O=c1c(O)c(-c2ccc(OC3OC(CO)C(O)C(O)C3O)cc2)oc2cc(O)cc(O)c12` (centres unmarked) [E16, Kaempferol 4'-O-glucoside] was tested, and the inhibition at 200 µM [1, 3] was 37.2 ± 0.64%.
Work on `O=c1c(O)c(-c2ccc(O)cc2)oc2cc(OC3OC(CO)C(O)C(O)C3O)cc(O)c12` (centres unmarked) [E17, Kaempferol 7-O-glucoside] yielded an inhibition at 200 µM [1] of 48.8 ± 1.07%.
`O=c1c(O)c(-c2ccc(O)cc2O)oc2cc(O)cc(O)c12` [E18, Morin] was tested, and the inhibition at 200 µM [1, 3] was 42.8 ± 0.91%.
With `O=c1c(O)c(-c2cc(O)c(O)c(O)c2)oc2cc(O)cc(O)c12` [E19, Myricetin] the “ΔG (Gibbs free-energy change)” value [2] was -5.946 kcal/mol and the IC50 ([1]; DPP-4 inhibition, fluorescence method) was under 200 µM.
For `COc1c(-c2ccc(O)c(O)c2)oc2cc(O)cc(O)c2c1=O` [E22, 3-O-Methylquercetin], the inhibition at 200 µM [1, 3] was 45.6 ± 0.78%.
`O=c1c(OC2OC(CO)C(O)C(O)C2O)c(-c2ccc(O)c(O)c2)oc2cc(OC3OC(COC4OC(CO)C(O)C(O)C4O)C(O)C(O)C3O)cc(O)c12` (centres unmarked) [E24, Quercetin 3-O-glu-7-O-gentiobioside] was tested, and the inhibition at 200 µM [1, 3] was 33.9 ± 1.07%.
Compound `CC1OC(Oc2cc(O)c3c(=O)c(O)c(-c4ccc(O)c(O)c4)oc3c2)C(O)C(O)C1O` (centres unmarked) [E25, Quercetin 7-O-rhamnoside] has an inhibition at 200 µM [1, 3] of 48.96 ± 0.12%.
In the case of `C[C@@H]1O[C@@H](Oc2c(-c3ccc(O)c(O)c3)oc3cc(O)cc(O)c3c2=O)[C@H](O)[C@H](O)[C@H]1O` [E26, Quercitrin], the inhibition at 200 µM [1, 3] is reported as 47.65 ± 0.36%.
Compound `COc1cc(O)c2c(=O)c(O)c(-c3ccc(O)c(O)c3)oc2c1` [E27, Rhamnetin] has an inhibition at 200 µM [1, 3] of 22.2 ± 0.63%.
For `C[C@@H]1O[C@@H](OC[C@H]2O[C@@H](Oc3c(-c4ccc(O)c(O)c4)oc4cc(O)cc(O)c4c3=O)[C@H](O)[C@@H](O)[C@@H]2O)[C@H](O)[C@H](O)[C@H]1O` [E28, Rutin], the inhibition at 200 µM [1, 3] was 42.7 ± 1.28%.
`Oc1cc(O)c2cc(O)c(-c3ccc(O)c(O)c3)[o+]c2c1` [F1, Cyanidin] gave an inhibition at 200 µM [1, 3] of 18.8 ± 0.4%.
Compound `COc1cc(-c2[o+]c3cc(O)cc(O)c3cc2OC2OC(CO)C(O)C(O)C2O)cc(OC)c1O` (centres unmarked) [F3, Malvidin 3-O-glucoside] has an inhibition at 200 µM [1] of 15 ± 2.42%.
Work on `COc1cc(-c2[o+]c3cc(O)cc(OC4OC(CO)C(O)C(O)C4O)c3cc2OC2OC(CO)C(O)C(O)C2O)cc(OC)c1O` (centres unmarked) [F4, Malvin] yielded an inhibition at 200 µM [1, 3] of 13.7 ± 2.07%.
`Oc1ccc(-c2[o+]c3cc(O)cc(O)c3cc2O)cc1` [F5, Pelargonidin] was tested, and the inhibition at 200 µM [1, 3] was under 10%.
For `COc1ccc(CCC(=O)c2c(O)cc(O[C@@H]3O[C@H](CO)[C@@H](O)[C@H](O)[C@H]3O[C@@H]3O[C@@H](C)[C@H](O)[C@@H](O)[C@H]3O)cc2O)cc1O` [G2, Neosperidin dihydrochalcone], the “% Inhibition at 200μM” value [1, 3] was 17.15 ± 0.23%.
With `O=C(CCc1ccc(O)cc1)c1c(O)cc(O)cc1O` [G3, Phloretin] the inhibition at 200 µM [1] was 17.8 ± 1.21%.
For `O=C(CCc1ccc(O)cc1)c1c(O)cc(O)cc1O[C@@H]1O[C@H](CO)[C@@H](O)[C@H](O)[C@H]1O` [G4, Phlorizin], the inhibition at 200 µM [1, 3] was under 10%.
For Myricitrin [E20], the “% Inhibition at 200μM” value [1, 3] was 39.8 ± 0.78%.
